Experimental data: US20060069132A1, “Azolecarboxamide herbicides” (priority 2004, published 2006)

Experiments:
johnsongrass = assay: Test E pre-/postemergence herbicide test; assay type: in vivo, Sorghum halepense
From the text: (§1) Seeds of plant species selected from bipinnate beggarticks (Bidens bipinnata L.), hairy beggarticks (Bidens radiata Thuill.), bermudagrass (Cynodon dactylon (L.) Pers.), Surinam grass (Urochloa decumbens (Staph) R. D. Webster, previously named Brachiaria decumbens Stapf), large crabgrass (Digitaria sanguinalis (L.) Scop.), green foxtail (Setaria viridis (L.) P. Beauv.), goosegrass (Eleusine indica (L.) Gaertn.), johnsongrass (Sorghum halepense (L.) Pers.), kochia (Kochia scoparia (L.) Schrad.), pitted morningglory (Ipomoea lacunosa L.), purple nutsedge (Cyperus rotundus L.), common ragweed (Ambrosia elatior L.), mustard (Brassica nigra (L.) W. D. J. Koch), guineagrass (Panicum maximum Jacq.), dallisgrass (Paspalum dilatatum Poir.), barnyardgrass (Echinochloa crus-galli (L). P. Beauv.), southern sandbur (Cenchrus echinatus L.), common sowthistle (Sonchus oleraceous L.), prickly sida (Sida spinosa L.), Italian ryegrass (Lolium multiflorum Lam.), common purslane (Portulaca oleracea L.), broadleaf signalgrass (Brachiaria platyphylla (Griseb.) Nash), common groundsel (Senecio vulgaris L.), common chickweed (Stellaria media (L.) Vill/Cyr.), tropical spiderwort (Commelina benghalensis L.), annual bluegrass (Poa annua L.), downy bromegrass (Bromus tectorum L.), itchgrass (Rottboellia cochinchinensis (L.) L.f.), quackgrass (Elytrigia repens (L.) Nevski), Canada horseweed (Erigeron Canadensis L.), field bindweed (Convolvulus arvensis L.), spotted spurge (Euphorbia maculata L.), common mallow (Malva sylvestris (=s silvestris) L.), and Russian thistle (Salsola kali L. ssp. Ruthenica (Iljin) Soo) were planted and treated preemergence with test chemicals formulated in a non-phytotoxic solvent mixture which included a surfactant.
(§2) At the same time, plants selected from these weed species were treated with postemergence applications of some of the test chemicals formulated in the same manner. Plants ranged in height from 2 to 18 cm (1- to 4-leaf stage) for postemergence treatments. Treated plants and controls were maintained in a greenhouse for 12 to 14 days, after which time all species were compared to controls and visually evaluated. Plant response ratings, summarized in Table E, are based on a scale of 0 to 100 where 0 is no effect and 100 is complete control. A dash (-) response means no test result.

quackgrass = assay: Test E pre-/postemergence herbicide test; assay type: in vivo, Elytrigia repens
From the text: as §1, §2

common purslane = assay: Test E pre-/postemergence herbicide test; assay type: in vivo, Portulaca oleracea
From the text: as §1, §2

barnyardgrass = assay: Test E pre-/postemergence herbicide test; assay type: in vivo, Echinochloa crus-galli
From the text: as §1, §2

Italian ryegrass = assay: Test E pre-/postemergence herbicide test; assay type: in vivo, Lolium multiflorum
From the text: as §1, §2

mustard = assay: Test E pre-/postemergence herbicide test; assay type: in vivo, Brassica nigra
From the text: as §1, §2

broadleaf signalgrass = assay: Test E pre-/postemergence herbicide test; assay type: in vivo, Brachiaria platyphylla
From the text: as §1, §2

itchgrass = assay: Test E pre-/postemergence herbicide test; assay type: in vivo, Rottboellia cochinchinensis
From the text: as §1, §2

large crabgrass = assay: Test E pre-/postemergence herbicide test; assay type: in vivo, Digitaria sanguinalis
From the text: as §1, §2

wheat = assay: Test C postemergence herbicide test; assay type: in vivo, Triticum aestivum
Outline: (§3)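 Injury scored visually against controls on a 0 (no effect) to 100 (complete control) scale, 12 to 14 days after treatment in greenhouse. Flooded paddy plants treated at 2-leaf stage; postemergence plants at 1- to 4-leaf stage, 2 to 18 cm tall.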

blackgrass = assay: Test C postemergence herbicide test; assay type: in vivo, Alopecurus myosuroides
Outline: as §3

prickly sida = assay: Test E pre-/postemergence herbicide test; assay type: in vivo, Sida spinosa; conditions: Preemergence
From the text: as §1, §2

downy bromegrass = assay: Test C postemergence herbicide test; assay type: in vivo, Bromus tectorum
Outline: as §3

[1] = Postemergence, 500 g ai/ha, scale 0 to 100
[2] = Postemergence, 250 g ai/ha, scale 0 to 100
[3] = Preemergence, 62 g ai/ha, scale 0 to 100
[4] = Preemergence, 125 g ai/ha, scale 0 to 100
[5] = Preemergence, 250 g ai/ha, scale 0 (no effect) to 100 (complete control)
[6] = Preemergence, 500 g ai/ha, scale 0 (no effect) to 100 (complete control)
[7] = postemergence, 125 g ai/ha, scale 0 to 100
[8] = postemergence, 62 g ai/ha, scale 0 to 100
[9] = Postemergence, 250 g ai/ha, scale 0 to 100, 0 no effect, 100 complete control
[10] = postemergence, 31 g ai/ha, scale 0 to 100

CCn1nc(C(C)(C)C)cc1C(=O)Nc1cc(C(=O)N(C)C)ccn1 [Compound 156, 2-[[[3-(1,1-dimethylethyl)-1-ethyl-1H-pyrazol-5-yl]carbonyl]amino]-N,N-dimethyl-4-pyridinecarboxamide]
35: Plant response rating, Crabgrass, Large (large crabgrass; [8])
40: Plant response rating, Signalgrass (broadleaf signalgrass; [8])
50: Plant response rating, Quackgrass (quackgrass; [3])
100: Plant response rating, Johnsongrass (johnsongrass; [1]) | Plant response rating, Johnsongrass (johnsongrass; [2]) | Plant response rating, Johnsongrass (johnsongrass; [4]) | Plant response rating, Johnsongrass (johnsongrass; [5]) | Plant response rating, Johnsongrass (johnsongrass; [6]) | Plant response rating, Quackgrass (quackgrass; [6]) | Plant response rating, Purslane (common purslane; [1]) | Plant response rating, Purslane (common purslane; [2]) | Plant response rating, Purslane (common purslane; [3]) | Plant response rating, Purslane (common purslane; [4]) | Plant response rating, Purslane (common purslane; [5]) | Plant response rating, Purslane (common purslane; [6]) | Plant response rating, Purslane (common purslane; [7]) | Plant response rating, Barnyardgrass (barnyardgrass; [3]) | Plant response rating, Barnyardgrass (barnyardgrass; [4]) | Plant response rating, Barnyardgrass (barnyardgrass; [5]) | Plant response rating, Barnyardgrass (barnyardgrass; [6]) | Plant response rating, Ryegrass, Italian (Italian ryegrass; [5]) | Plant response rating, Ryegrass, Italian (Italian ryegrass; [6]) | Plant response rating, Black Mustard (mustard; [1]) | Plant response rating, Black Mustard (mustard; [2]) | Plant response rating, Black Mustard (mustard; [3]) | Plant response rating, Black Mustard (mustard; [4]) | Plant response rating, Black Mustard (mustard; [5]) | Plant response rating, Black Mustard (mustard; [6]) | Plant response rating, Black Mustard (mustard; [7]) | Plant response rating, Itchgrass (itchgrass; [3]) | Plant response rating, Itchgrass (itchgrass; [4]) | Plant response rating, Itchgrass (itchgrass; [5]) | Plant response rating, Itchgrass (itchgrass; [6])
98: Plant response rating, Quackgrass (quackgrass; [1]) | Plant response rating, Barnyardgrass (barnyardgrass; [1]) | Plant response rating, Barnyardgrass (barnyardgrass; [2]) | Plant response rating, Ryegrass, Italian (Italian ryegrass; [1]) | Plant response rating, Ryegrass, Italian (Italian ryegrass; [2]) | Plant response rating, Black Mustard (mustard; [8]) | Plant response rating, Signalgrass (broadleaf signalgrass; [1]) | Plant response rating, Itchgrass (itchgrass; [1]) | Plant response rating, Crabgrass, Large (large crabgrass; [1])
95: Plant response rating, Johnsongrass (johnsongrass; [3]) | Plant response rating, Johnsongrass (johnsongrass; [7]) | Plant response rating, Quackgrass (quackgrass; [2]) | Plant response rating, Quackgrass (quackgrass; [5]) | Plant response rating, Quackgrass (quackgrass; [7]) | Plant response rating, Barnyardgrass (barnyardgrass; [7]) | Plant response rating, Ryegrass, Italian (Italian ryegrass; [4]) | Plant response rating, Ryegrass, Italian (Italian ryegrass; [7]) | Plant response rating, Signalgrass (broadleaf signalgrass; [2]) | Plant response rating, Signalgrass (broadleaf signalgrass; [6]) | Plant response rating, Itchgrass (itchgrass; [2]) | Plant response rating, Itchgrass (itchgrass; [7]) | Plant response rating, Crabgrass, Large (large crabgrass; [2]) | Plant response rating, Crabgrass, Large (large crabgrass; [5]) | Plant response rating, Crabgrass, Large (large crabgrass; [6])
60: Plant response rating, Ryegrass, Italian (Italian ryegrass; [3])
85: Plant response rating, Johnsongrass (johnsongrass; [8]) | Plant response rating, Signalgrass (broadleaf signalgrass; [3]) | Plant response rating, Signalgrass (broadleaf signalgrass; [7])
90: Plant response rating, Quackgrass (quackgrass; [4]) | Plant response rating, Barnyardgrass (barnyardgrass; [8]) | Plant response rating, Ryegrass, Italian (Italian ryegrass; [8]) | Plant response rating, Signalgrass (broadleaf signalgrass; [5]) | Plant response rating, Crabgrass, Large (large crabgrass; [4])
75: Plant response rating, Quackgrass (quackgrass; [8]) | Plant response rating, Purslane (common purslane; [8])
80: Plant response rating, Itchgrass (itchgrass; [8]) | Plant response rating, Crabgrass, Large (large crabgrass; [7])

CCN1N=C(C(C)(C)C)CC1C(=O)Nc1cc(C(=O)N(C)C)ccc1F (stereo not drawn) [Compound 268, N-[5-[(dimethylamino)carbonyl]-2-fluorophenyl]-3-(1,1-dimethylethyl)-1-ethyl-4,5-dihydro-1H-pyrazole-5-carboxamide]
95: Plant response rating, Quackgrass (quackgrass; [5]) | Plant response rating, Quackgrass (quackgrass; [6]) | Plant response rating, Ryegrass, Italian (Italian ryegrass; [3]) | Plant response rating, Ryegrass, Italian (Italian ryegrass; [4]) | Plant response rating, Ryegrass, Italian (Italian ryegrass; [5]) | Plant response rating, Ryegrass, Italian (Italian ryegrass; [6]) | Plant response rating, Itchgrass (itchgrass; [6]) | Plant response rating, Crabgrass, Large (large crabgrass; [5]) | Plant response rating, Crabgrass, Large (large crabgrass; [6])
20: Plant response rating, Signalgrass (broadleaf signalgrass; [3])
100: Plant response rating, Barnyardgrass (barnyardgrass; [5]) | Plant response rating, Barnyardgrass (barnyardgrass; [6]) | Plant response rating, Black Mustard (mustard; [4]) | Plant response rating, Black Mustard (mustard; [5]) | Plant response rating, Black Mustard (mustard; [6]) | Plant response rating, Prickly Sida (prickly sida; 250 g ai/ha, scale 0 (no effect) to 100 (complete control)) | Plant response rating, Prickly Sida (prickly sida; 500 g ai/ha, scale 0 (no effect) to 100 (complete control))
50: Plant response rating, Johnsongrass (johnsongrass; [4]) | Plant response rating, Johnsongrass (johnsongrass; [5]) | Plant response rating, Itchgrass (itchgrass; [3])
60: Plant response rating, Blackgrass (blackgrass; [9]) | Plant response rating, Barnyardgrass (barnyardgrass; [3]) | Plant response rating, Signalgrass (broadleaf signalgrass; [4]) | Plant response rating, Itchgrass (itchgrass; [4]) | Plant response rating, Prickly Sida (prickly sida; 62 g ai/ha, scale 0 to 100)
10: Plant response rating, Bromegrass, Downy (downy bromegrass; [8])
0: Plant response rating, Wheat (wheat; [7]) | Plant response rating, Wheat (wheat; [8]) | Plant response rating, Blackgrass (blackgrass; [10]) | Plant response rating, Bromegrass, Downy (downy bromegrass; [10])
40: Plant response rating, Quackgrass (quackgrass; [3]) | Plant response rating, Bromegrass, Downy (downy bromegrass; [9])
85: Plant response rating, Quackgrass (quackgrass; [4]) | Plant response rating, Barnyardgrass (barnyardgrass; [4])
75: Plant response rating, Itchgrass (itchgrass; [5])
80: Plant response rating, Johnsongrass (johnsongrass; [6]) | Plant response rating, Signalgrass (broadleaf signalgrass; [5]) | Plant response rating, Signalgrass (broadleaf signalgrass; [6]) | Plant response rating, Prickly Sida (prickly sida; 125 g ai/ha, scale 0 to 100) | Plant response rating, Crabgrass, Large (large crabgrass; [4])
45: Plant response rating, Blackgrass (blackgrass; [7])
25: Plant response rating, Wheat (wheat; [9])
30: Plant response rating, Johnsongrass (johnsongrass; [3]) | Plant response rating, Blackgrass (blackgrass; [8]) | Plant response rating, Bromegrass, Downy (downy bromegrass; [7])
90: Plant response rating, Black Mustard (mustard; [3])
70: Plant response rating, Crabgrass, Large (large crabgrass; [3])
